The text below walks through data of patent publication US10029990B2, “Agent for inducing endogenous interferon” (priority 2010, dated 2018).

Structures are written as SMILES.

Data set [1] deals with endogenous interferon. Briefly: Interferon inducing activity in vivo during intragastric administration to mice. The following applies: 1000 μg/mouse, background 7-10 units.
Data set [2] concerns endogenous interferon. Briefly: Interferon inducing activity in vivo during oral administration to mice. The following applies: 5.0 mg/mouse, background 7-10 units.
A short description of data set [3]: Concentration in blood plasma of rabbits during vaginal administration (vaginal suppositories 0.1 g). It is filed as in vivo. Here is the method: Concentration in blood plasma of the experimental animals during vaginal administration of the inventive substance.
The results of measuring the concentration of the substance in blood plasma of rabbits during vaginal administration in the form of “vaginal suppositories 0.1 g” are shown on the provided diagram in the form of averaged pharmacokinetic curves (see FIG. 1). After inserting the suppository, the substance began to enter the general blood circulation after approximately 15 minutes; after 1 hour the concentration of the substance in the blood reached its maximum (approximately 120 μg/ml); then it was gradually excreted from the organism, and 24 hours after its administration the detected presence of the substance in blood plasma was minimal (approximately 20 μg/ml). The dispersion of individual values was moderate: coefficient of variation CV amounted to 13-22%.

As for `COC(=O)c1cccc(Nc2cc(=O)[nH]c(=O)[nH]2)c1` [The inventive substance, monomer, 6-(3-methoxycarbonylphenyl) amino-2,4 (1H, 3H)-pyrimidinedione], the “Interferon inducing activity, 2 hours” value is listed as 30 IU in the data set with endogenous interferon [1] (2 hours) and 18 IU in the data set on endogenous interferon [2] (2 hours). In addition, the “Interferon inducing activity, 4 hours” value was 10 IU in the data set with endogenous interferon [1] (4 hours) and 120 IU in the data set with endogenous interferon [2] (4 hours). Further, the “Interferon inducing activity, 6 hours” value with endogenous interferon [1] (6 hours) was determined as 160 IU; in the data set with endogenous interferon [2] (6 hours), 20 IU. The “Interferon inducing activity, 8 hours” value in the data set on endogenous interferon [1] (8 hours) was 25-30 IU; in the data set on endogenous interferon [2] (8 hours), 40 IU. Moreover, the “Interferon inducing activity, 24 hours” value in the data set on endogenous interferon [1] (24 hours) worked out at 30 IU; with endogenous interferon [2] (24 hours), 100 IU. Also, in data set [3], the “Time at which concentration in the blood reached its maximum” value amounted to 1 h. The “Time until the substance began to enter the general blood circulation” value in data set [3] is on record as “approximately 15 minutes”. In data set [3] (after 1 hour), the “Maximum concentration of the substance in the blood” value is “approximately 120 μg/ml”. Also, in data set [3] (rabbit, plasma, other: vaginal, 24 hours, read-out: Concentration of the substance in blood plasma 24 hours after administration), the concentration at 24 h is ~20000 ng/mL.
